Test results published in patent publication EP4353712A1 (Biodol Therapeutics, priority 2022, dated 2024).

biological target: T1, FLT3 (Homo sapiens, UniProt P36888); test: HTRF binding assay of FL to FLT3 (TR-FRET, SNAP-FLT3 transfected HEK293T cells); conditions: HEK293T cells transfected with SNAP-FLT3, labelled with SNAP-Lumi4-Tb; compounds 1 h at room temperature, then FL-d2 (0.5 nM), read after 20 h; 12 dilutions in triplicates, performed twice; read-out: Inhibition of FLT3 binding IC50, binding
T1 construct: expressed in transfected cells; host or cells: HEK293T
T1 sequence (P36888 27-993): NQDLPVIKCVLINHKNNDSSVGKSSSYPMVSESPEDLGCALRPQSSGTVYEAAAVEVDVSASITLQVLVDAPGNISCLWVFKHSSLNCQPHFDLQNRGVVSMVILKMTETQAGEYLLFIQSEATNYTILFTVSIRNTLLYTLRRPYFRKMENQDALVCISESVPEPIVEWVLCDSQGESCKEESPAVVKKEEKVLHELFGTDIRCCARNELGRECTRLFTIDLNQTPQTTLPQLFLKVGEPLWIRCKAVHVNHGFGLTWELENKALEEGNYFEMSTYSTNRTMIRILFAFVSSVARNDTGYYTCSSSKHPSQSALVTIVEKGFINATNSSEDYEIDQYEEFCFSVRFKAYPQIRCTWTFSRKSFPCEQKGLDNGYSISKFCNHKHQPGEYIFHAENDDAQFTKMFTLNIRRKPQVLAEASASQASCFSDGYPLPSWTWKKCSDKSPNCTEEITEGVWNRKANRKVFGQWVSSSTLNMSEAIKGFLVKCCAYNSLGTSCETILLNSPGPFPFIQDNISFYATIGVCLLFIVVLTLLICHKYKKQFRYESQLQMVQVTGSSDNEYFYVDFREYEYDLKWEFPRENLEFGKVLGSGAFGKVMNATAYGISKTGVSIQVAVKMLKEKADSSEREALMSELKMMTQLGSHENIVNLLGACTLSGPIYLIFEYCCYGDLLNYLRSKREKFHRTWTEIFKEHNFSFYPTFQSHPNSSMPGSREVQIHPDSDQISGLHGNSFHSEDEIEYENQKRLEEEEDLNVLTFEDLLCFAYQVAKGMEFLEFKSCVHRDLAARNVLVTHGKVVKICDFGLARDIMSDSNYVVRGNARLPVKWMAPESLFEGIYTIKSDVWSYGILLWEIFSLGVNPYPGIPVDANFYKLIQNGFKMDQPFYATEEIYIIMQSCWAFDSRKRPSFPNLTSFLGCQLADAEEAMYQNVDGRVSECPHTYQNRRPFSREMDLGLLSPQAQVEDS
Description: The binding of FL to FLT3 was measured by a Homologous Time-Resolved Fluorescence (HTRF) assay (Degorce et al., Current Chemical Genomics, 2009, 3, 22-32), which involves resonance energy transfer between a donor, Lumi4-Tb-donor-derivatized benzylguanine substrate (SNAP-Lumi4-Tb, excitation: 337 nm, emission: 630 nm, Cisbio, France), transfected in HEK cells, and an acceptor, red fluorescent FL (FL-d2, excitation: 620 nm, emission: 660 nm, Cisbio, France). When FL-d2 binds to the SNAP-Lumi4-Tb-tagged FLT3 receptor, the proximity of both fluorophores allows the time-resolved Förster resonance energy transfer (TR-FRET) signal to occur and the binding is measured as the ratio between the fluorescent emissions at 660 to 620 nm.
The detailed method is described in Rivat et al. (Nature Communications, 2018, 9 :1042). Briefly, HEK293T cells were transfected with a pCDNA3.1 SNAP-FLT3 plasmid by using Lipofectamine (Invitrogen), and were than labelled with SNAP-Lumi4-Tb. Plates containing attached transfected HEK293T cells were incubated with compounds of formula (I) for 1 h at room temperature. A series of 12 dilutions in triplicates was used for each compound and the experiment was performed twice. Then FL-d2 (0.5 nM) was added and the TR-FRET signal was read after 20 h incubation at room temperature with a HTRF-compatible reader (Envision, Perkin Elmer) allowing a donor excitation at 337 nm and a signal collection both at 615 nm and 665 nm (20 flashes, delay 50 µs, integration time 400 µs). Then HTRF ratio, obtained by dividing the acceptor signal (665 nm) by the donor signal (615 nm), was calculated at each concentration of test compounds. Non-specific binding was measured in the presence 50 µM of BDT001 (Rivat et al., ibid.). Concentration giving 50 % inhibition (IC50) were calculated by non-linear regression analysis for a one-site model, with variable slope (Prism®, Graphpad software, USA).

First: CN1CCC(c2ccc(C(=O)Nc3ccc(F)c4cccnc34)cc2)CC1 [(1), N-(5-fluoroquinolin-8-yl)-4-(1-methylpiperidin-4-yl)benzamide]
Second: CN1CCC(c2ccc(C(=O)Nc3ccc(F)c4ncccc34)cc2)CC1 [(4), N-(8-fluoroquinolin-5-yl)-4-(1-methylpiperidin-4-yl)benzamide]
The IC50 of the first is 4.4-fold lower: 1200 nM for the first, 5300 nM for the second. The first is the more potent here.

CN1CCC(c2ccc(C(=O)Nc3ccc(F)c4cnccc34)cc2)CC1 [(2), N-(8-fluoroisoquinolin-5-yl)-4-(1-methylpiperidin-4-yl)benzamide] and CN1CCC(c2ccc(C(=O)Nc3ccc(F)c4ccncc34)cc2)CC1 [(3), N-(5-fluoroisoquinolin-8-yl)-4-(1-methylpiperidin-4-yl)benzamide] are within 1.5-fold of each other in IC50: 1400 nM for the first, 1800 nM for the second.

CN1CCC(c2ccc(C(=O)Nc3ccc(F)c4nccnc34)cc2)CC1 [(5), N-(8-fluoroquinoxalin-5-yl)-4-(1-methylpiperidin-4-yl)benzamide] and CN1CCC(c2ccc(C(=O)Nc3cccc4nccnc34)cc2)CC1 [(28), 4-(1-methylpiperidin-4-yl)-N-(quinoxalin-5-yl)benzamide] are the same in IC50: 400 nM for the first, 400 nM for the second.

CN1CCC(c2ccc(C(=O)Nc3cccc4ncccc34)cc2)CC1 [(6), 4-(1-methylpiperidin-4-yl)-N-(quinolin-5-yl)benzamide] and CN1CCC(c2ccc(C(=O)Nc3cccc4cccnc34)cc2)CC1 [(9), 4-(1-methylpiperidin-4-yl)-N-(quinolin-8-yl)benzamide] are within 1.5-fold of each other in IC50: 1300 nM for the first, 1500 nM for the second.

CN1CCC(c2ccc(C(=O)Nc3cccc4cnccc34)cc2)CC1 [(7), N-(isoquinolin-5-yl)-4-(l-methylpiperidin-4-yl)benzamide] and CN1CCC(c2ccc(C(=O)Nc3cccc4ccncc34)cc2)CC1 [(8), N-(isoquinolin-8-yl)-4-(1-methylpiperidin-4-yl)benzamide] are the same in IC50: 800 nM for the first, 800 nM for the second.

CN(C)CCOc1ccc(C(=O)Nc2cccc3ccncc23)cc1 [(10), 4-[2-(dimethylamino)ethoxy]-N-(isoquinolin-8-yl)benzamide] and CN(C)CCOc1ccc(C(=O)Nc2cccc3cnccc23)cc1 [(14), 4-(2-(dimethylamino)ethoxy)-N-(isoquinolin-5-yl)benzamide] are within 1.5-fold of each other in IC50: 800 nM for the first, 900 nM for the second.

Compared with CN(C)CCOc1ccc(C(=O)Nc2cccc3cccnc23)cc1 [(11), 4-[2-(dimethylamino)ethoxy]-N-(quinolin-8-yl)benzamide], CN(C)CCOc1ccc(C(=O)Nc2cccc3ncccc23)cc1 [(15), 4-(2-(dimethylamino)ethoxy)-N-(quinolin-5-yl)benzamide] is 1.7-fold lower in IC50: 2900 nM for the first, 1700 nM for the second.

Going from CN1CCC(c2ccc(C(=O)Nc3cccc4cccnc34)c(F)c2)CC1 [(12), 2-fluoro-4-(1-methylpiperidin-4-yl)-N-(quinolin-8-yl)benzamide] to COc1cc(C2CCN(C)CC2)ccc1C(=O)Nc1cccc2cccnc12 [(16), 2-methoxy-4-(1-methylpiperidin-4-yl)-N-(quinolin-8-yl)benzamide], the IC50 falls from 1800 nM to 600 nM (3-fold). The second is the more potent here.

Going from CN1CCC(c2ccc(C(=O)Nc3cccc4cnccc34)cc2F)CC1 [(13), 3-fluoro-N-(isoquinolin-5-yl)-4-(1-methylpiperidin-4-yl)benzamide] to COc1cc(C(=O)Nc2cccc3cnccc23)ccc1C1CCN(C)CC1 [(17), N-(isoquinolin-5-yl)-3-methoxy-4-(1-methylpiperidin-4-yl)benzamide], the IC50 falls from 1400 nM to 900 nM (1.6-fold). The second is the more potent here.

First: CN1CCC(c2ccc(C(=O)Nc3cccc4cccnc34)c(C(F)(F)F)c2)CC1 [(18), 4-(1-methylpiperidin-4-yl)-N-(quinolin-8-yl)-2-(trifluoromethyl)benzamide]
Second: CN1CCC(c2ccc(C(=O)Nc3cccc4ncccc34)cc2C(F)(F)F)CC1 [(27), 4-(1-methylpiperidin-4-yl)-N-(quinolin-5-yl)-3-(trifluoromethyl)benzamide]
The IC50 of the first is 2.1-fold lower: 1700 nM for the first, 3600 nM for the second.

First: CN(C)CCOc1ccc(C(=O)Nc2cccc3cnncc23)cc1 [(19), 4-[2-(dimethylamino)ethoxy]-N-(phthalazin-5-yl)benzamide]
Second: CN(C)CCOc1ccc(C(=O)Nc2cccc3nccnc23)cc1 [(31), 4-[2-(dimethylamino)ethoxy]-N-(quinoxalin-5-yl)benzamide]
The IC50 of the first is 36-fold higher: 25000 nM for the first, 700 nM for the second.

Compared with CN(C)CCOc1ccc(C(=O)Nc2ccc(F)c3ncccc23)cc1 [(20), 4-(2-(dimethylamino)ethoxy)-N-(8-fluoroquinolin-5-yl)benzamide], CN(C)CCOc1ccc(C(=O)Nc2ccc(F)c3cccnc23)cc1 [(26), 4-[2-(dimethylamino)ethoxy]-N-(5-fluoroquinolin-8-yl)benzamide] is 4.4-fold lower in IC50: 6200 nM for the first, 1400 nM for the second. The second is the more potent here.

CN1CCC(c2ccc(C(=O)Nc3cccc4cnccc34)cc2C#N)CC1 [(21), 3-cyano-N-(isoquinolin-5-yl)-4-(1-methylpiperidin-4-yl)benzamide] and CN1CCC(c2ccc(C(=O)Nc3cccc4cnccc34)c(S(C)(=O)=O)c2)CC1 [(25), N-(isoquinolin-5-yl)-2-methanesulfonyl-4-(1-methylpiperidin-4-yl)benzamide] are within 1.5-fold of each other in IC50: 2000 nM for the first, 2600 nM for the second.

CN(C)CCOc1ccc(C(=O)Nc2ccc(F)c3ccncc23)cc1 [(22), 4-(2-(dimethylamino)ethoxy)-N-(5-fluoroisoquinolin-8-yl)benzamide] and CN(C)CCOc1ccc(C(=O)Nc2ccc(F)c3cnccc23)cc1 [(33), 4-[2-(dimethylamino)ethoxy]-N-(8-fluoroisoquinolin-5-yl)benzamide] are within 1.5-fold of each other in IC50: 1900 nM for the first, 2300 nM for the second.

First: CN(C)CCOc1ccc(C(=O)Nc2ccc(F)c3nccnc23)cc1 [(23), 4-(2-(dimethylamino)ethoxy)-N-(8-fluoroquinoxalin-5-yl)benzamide]
Second: CN(C)CCOc1ccc(C(=O)Nc2ccc(Cl)c3ncccc23)cc1 [(32), N-(8-chloroquinolin-5-yl)-4-[2-(dimethylamino)ethoxy]benzamide]
The IC50 of the first is 4.8-fold lower: 500 nM for the first, 2400 nM for the second. The first is the more potent here.

Going from CN1CCN(c2ccc(C(=O)Nc3cccc4cnccc34)cc2F)CC1 [(24), 3-fluoro-N-(isoquinolin-5-yl)-4-(4-methylpiperazin-1-yl)benzamide] to CN1CCN(c2ccc(C(=O)Nc3cccc4ccncc34)cc2)CC1 [(38), N-(isoquinolin-8-yl)-4-(4-methylpiperazin-1-yl)benzamide], the IC50 falls from 1100 nM to 600 nM (1.8-fold).

Cc1cc(C(=O)Nc2cccc3ncccc23)ccc1N1CCN(C)CC1 [(29), 3-methyl-4-(4-methylpiperazin-1-yl)-N-(quinolin-5-yl)benzamide] and CN1CCN(c2ccc(C(=O)Nc3cccc4cccnc34)cc2)CC1 [(35), 4-(4-methylpiperazin-1-yl)-N-(quinolin-8-yl)benzamide] are within 1.5-fold of each other in IC50: 1200 nM for the first, 1700 nM for the second.

First: CN1CCC(c2ccc(C(=O)Nc3ccc(Cl)c4ncccc34)cc2)CC1 [(30), N-(8-chloroquinolin-5-yl)-4-(1-methylpiperidin-4-yl)benzamide]
Second: CN1CCN(c2ccc(C(=O)Nc3ccc(F)c4nccnc34)cc2)CC1 [(37), N-(8-fluoroquinoxalin-5-yl)-4-(4-methylpiperazin-1-yl)benzamide]
The IC50 of the first is 2.7-fold higher: 1900 nM for the first, 700 nM for the second. The second is the more potent here.

Going from COc1ccc(NC(=O)c2ccc(OCCN(C)C)cc2)c2ccncc12 [(34)] to CN(C)CCOc1ccc(C(=O)Nc2cccc3ccncc23)cc1C#N [(36), 3-cyano-4-(2-(dimethylamino)ethoxy)-N-(isoquinolin-8-yl)benzamide], the IC50 rises from 500 nM to 2500 nM (5-fold). The first is the more potent here.
